Reference: ChEMBL document CHEMBL3286215, “Preparation, anticholinesterase activity and molecular docking of new lupane derivatives” (Bioorg Med Chem, 2014)
Calls of active or inactive are those of the source. The rule behind the calls is not given here.

What was measured:
[1] = target: Acetylcholinesterase (Torpedo californica) (UniProt P04058); experiment: Inhibition of Pacific electric ray AChE using acetylthiocholine iodide as substrate at 200 uM after 60 mins by Ellman's method relative to control; conditions: Tetronarce californica
Sequence of Acetylcholinesterase (Torpedo californica) (P04058 22-564 limits assumed): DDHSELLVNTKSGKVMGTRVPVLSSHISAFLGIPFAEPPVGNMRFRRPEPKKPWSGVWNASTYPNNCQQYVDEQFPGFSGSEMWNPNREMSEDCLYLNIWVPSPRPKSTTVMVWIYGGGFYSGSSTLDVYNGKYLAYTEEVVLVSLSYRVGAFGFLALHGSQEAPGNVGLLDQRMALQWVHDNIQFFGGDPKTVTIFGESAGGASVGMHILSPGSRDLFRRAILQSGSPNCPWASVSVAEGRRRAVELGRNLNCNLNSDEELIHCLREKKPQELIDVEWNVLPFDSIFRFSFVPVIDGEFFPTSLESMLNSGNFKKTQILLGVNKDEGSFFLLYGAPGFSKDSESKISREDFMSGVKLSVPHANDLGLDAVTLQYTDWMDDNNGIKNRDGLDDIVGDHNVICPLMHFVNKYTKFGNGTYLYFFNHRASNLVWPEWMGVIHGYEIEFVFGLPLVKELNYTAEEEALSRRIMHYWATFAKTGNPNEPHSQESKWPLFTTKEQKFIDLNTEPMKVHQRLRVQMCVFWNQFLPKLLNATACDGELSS

Acetylcholinesterase [2] = target: T1, Acetylcholinesterase (Torpedo californica, UniProt P04058)
T1 sequence (P04058 whole entry): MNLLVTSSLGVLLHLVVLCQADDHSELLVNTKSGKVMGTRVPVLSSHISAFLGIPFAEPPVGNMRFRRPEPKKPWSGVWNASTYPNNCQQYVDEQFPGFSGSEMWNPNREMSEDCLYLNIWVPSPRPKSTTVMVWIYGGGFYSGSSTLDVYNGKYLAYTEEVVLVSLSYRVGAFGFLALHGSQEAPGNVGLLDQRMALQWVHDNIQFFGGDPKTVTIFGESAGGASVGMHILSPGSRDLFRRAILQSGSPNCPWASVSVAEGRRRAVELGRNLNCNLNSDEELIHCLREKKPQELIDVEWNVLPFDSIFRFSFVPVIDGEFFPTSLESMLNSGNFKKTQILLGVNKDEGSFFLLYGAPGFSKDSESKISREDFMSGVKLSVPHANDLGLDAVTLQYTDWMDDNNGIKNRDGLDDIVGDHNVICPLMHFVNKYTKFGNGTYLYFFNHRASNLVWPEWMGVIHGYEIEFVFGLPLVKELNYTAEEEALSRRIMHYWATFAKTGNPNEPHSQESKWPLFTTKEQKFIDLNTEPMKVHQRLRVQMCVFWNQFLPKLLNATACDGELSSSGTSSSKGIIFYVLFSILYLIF
Description: Inhibition of Pacific electric ray AChE using acetylthiocholine iodide as substrate after 60 mins by Ellman's method

[3] = target: Cholinesterase (Equus caballus) (UniProt P81908); experiment: Inhibition of BChE in horse serum using butyrylthiocholine iodide as substrate at 200 uM after 120 mins by Ellman's method relative to control
Sequence of Cholinesterase (Equus caballus) (P81908 whole entry): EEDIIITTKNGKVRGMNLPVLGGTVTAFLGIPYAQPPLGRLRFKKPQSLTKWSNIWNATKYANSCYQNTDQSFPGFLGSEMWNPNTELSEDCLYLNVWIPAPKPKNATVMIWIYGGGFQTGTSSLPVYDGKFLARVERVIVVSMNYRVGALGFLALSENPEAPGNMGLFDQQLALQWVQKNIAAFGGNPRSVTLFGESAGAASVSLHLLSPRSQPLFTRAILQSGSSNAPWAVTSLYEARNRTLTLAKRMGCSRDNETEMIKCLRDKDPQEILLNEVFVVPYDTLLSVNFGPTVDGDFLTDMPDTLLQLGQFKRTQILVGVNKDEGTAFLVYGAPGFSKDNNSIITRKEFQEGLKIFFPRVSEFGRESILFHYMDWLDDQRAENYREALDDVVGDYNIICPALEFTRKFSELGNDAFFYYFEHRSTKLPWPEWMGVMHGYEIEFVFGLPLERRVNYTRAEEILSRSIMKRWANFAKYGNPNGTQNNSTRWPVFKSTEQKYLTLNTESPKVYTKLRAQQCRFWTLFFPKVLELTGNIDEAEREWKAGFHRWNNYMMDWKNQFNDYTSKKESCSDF

[4] = Selectivity index, ratio of IC50 for Pacific electric ray AChE to IC50 for BChE in horse serum
Cholinesterase = Cholinesterase (Equus caballus, UniProt P81908)
Sequence of Cholinesterase (P81908 whole entry): as above
Description: Inhibition of BChE in horse serum using butyrylthiocholine iodide as substrate after 120 mins by Ellman's method

Acetylcholinesterase [5] = target: T1, Acetylcholinesterase; experiment: Uncompetitive inhibition of Pacific electric ray AChE using acetylthiocholine as substrate by Lineweaver-Burk plot analysis; design: species or system Tetronarce californica

## C=C(COC(C)=O)[C@@H]1CC[C@@]2(C)[C@H]1[C@H]1CC[C@@H]3[C@@]4(C)CC[C@H](OC(C)=O)C(C)(C)[C@@H]4CC[C@@]3(C)[C@]1(C)C[C@@H]2OC(C)=O
[1]
  inhibition: 7.2%

## CC(C)[C@@H]1CC[C@@]2(C)[C@H]1[C@H]1CC[C@@H]3[C@@]4(C)CC[C@H](O)C(C)(C)[C@@H]4CC[C@@]3(C)[C@]1(C)C[C@@H]2O
Acetylcholinesterase [2]
  IC50: > 200 µM
[3]
  inhibition: 14.3%
[1]
  inhibition: 24.3%

## C=C(C=O)[C@@H]1CC[C@@]2(C)[C@H]1[C@H]1CC[C@@H]3[C@@]4(C)CC[C@H](OS(=O)(=O)O)C(C)(C)[C@@H]4CC[C@@]3(C)[C@]1(C)C[C@@H]2OS(=O)(=O)O
[3]
  inhibition: 18.4%
[1]
  inhibition: 6.1%

## C=C(C)[C@@H]1CC[C@@]2(C)[C@H]1[C@H]1CC[C@@H]3[C@@]4(C)CC[C@H](OC(C)=O)C(C)(C)[C@@H]4CC[C@@]3(C)[C@]1(C)C[C@@H]2OC(C)=O
[3]
  inhibition: 35.2%
[1]
  inhibition: 3.3%

## C=C(C)[C@@H]1CC[C@@]2(C)[C@H]1[C@H]1CC[C@@H]3[C@@]4(C)CC[C@H](OC(=O)CCCCC(=O)O)C(C)(C)[C@@H]4CC[C@@]3(C)[C@]1(C)C[C@@H]2OC(=O)CCCCC(=O)O
Acetylcholinesterase [2]
  IC50: > 200 µM
[4]
  Ratio IC50: > 2.48
[3]
  inhibition: 89.2%
Cholinesterase
  IC50: 80.6 µM
[1]
  inhibition: 20.2%

## C=C(C)[C@@H]1CC[C@@]2(C)[C@H]1[C@H]1CC[C@@H]3[C@@]4(C)CC[C@H](OC(C)=O)C(C)(C)[C@@H]4CC[C@@]3(C)[C@]1(C)C[C@@H]2O
[3]
  inhibition: 46.2%
Cholinesterase
  IC50: > 200 µM
[1]
  inhibition: 1.9%

## C=CCCC(=O)O[C@H]1CC[C@]2(C)[C@H]3CC[C@@H]4[C@H]5[C@H](C(=C)C)CC[C@]5(C)[C@@H](OC(=O)CCC=C)C[C@@]4(C)[C@]3(C)CC[C@H]2C1(C)C
[3]
  inhibition: 29.3%
[1]
  inhibition: 6.4%

## C=C(CO)[C@@H]1CC[C@@]2(C)[C@H]1[C@H]1CC[C@@H]3[C@@]4(C)CC[C@H](O)C(C)(C)[C@@H]4CC[C@@]3(C)[C@]1(C)C[C@@H]2O
Acetylcholinesterase [2]
  IC50: > 200 µM
[3]
  inhibition: 32%
[1]
  inhibition: 40.4%

## C=C(C=O)[C@@H]1CC[C@@]2(C)[C@H]1[C@H]1CC[C@@H]3[C@@]4(C)CC[C@H](O)C(C)(C)[C@@H]4CC[C@@]3(C)[C@]1(C)C[C@@H]2O
Acetylcholinesterase [2]
  IC50: > 200 µM
[3]
  inhibition: 42%
[1]
  inhibition: 43.5%

## C=C(C)[C@@H]1CC[C@@]2(C)[C@H]1[C@H]1CC[C@@H]3[C@@]4(C)CC[C@H](OC(=O)c5ccccc5)C(C)(C)[C@@H]4CC[C@@]3(C)[C@]1(C)C[C@@H]2OC(=O)c1ccccc1
[3]
  inhibition: 39.9%
[1]
  inhibition: 3.9%

## C=C(C=O)[C@@H]1CC[C@@]2(C)[C@H]1[C@H]1CC[C@@H]3[C@@]4(C)CC[C@H](OC(C)=O)C(C)(C)[C@@H]4CC[C@@]3(C)[C@]1(C)C[C@@H]2OC(C)=O
[3]
  inhibition: 45.8%
Cholinesterase
  IC50: > 200 µM
[1]
  inhibition: 6.8%

## C=C(COS(=O)(=O)O)[C@@H]1CC[C@@]2(C)[C@H]1[C@H]1CC[C@@H]3[C@@]4(C)CC[C@H](OS(=O)(=O)O)C(C)(C)[C@@H]4CC[C@@]3(C)[C@]1(C)C[C@@H]2OS(=O)(=O)O
Acetylcholinesterase [2]
  IC50: > 200 µM
[3]
  inhibition: 50.2%
Cholinesterase
  IC50: > 200 µM
[1]
  inhibition: 12.9%

## C=C(C)[C@@H]1CC[C@@]2(C)[C@H]1[C@H]1CC[C@@H]3[C@@]4(C)CC[C@H](OC(=O)c5ccc(Br)cc5)C(C)(C)[C@@H]4CC[C@@]3(C)[C@]1(C)C[C@@H]2OC(=O)c1ccc(Br)cc1
[3]
  inhibition: 18.4%
[1]
  inhibition: inactive

## CC(C)[C@@H]1CC[C@@]2(C)[C@H]1[C@H]1CC[C@@H]3[C@@]4(C)CC[C@H](OS(=O)(=O)O)C(C)(C)[C@@H]4CC[C@@]3(C)[C@]1(C)C[C@@H]2OS(=O)(=O)O
Acetylcholinesterase [2]
  IC50: 58.8 µM
[4]
  Ratio IC50: 0.56
[3]
  inhibition: 87.8%
Acetylcholinesterase [5]
  Ki: 144 µM
Cholinesterase
  IC50: 104 µM
[1]
  inhibition: 98.9%

## C=C(C)[C@@H]1CC[C@@]2(C)[C@H]1[C@H]1CCC3[C@@]4(C)CC[C@H](O)C(C)(C)[C@@H]4CC[C@@]3(C)[C@]1(C)C[C@@H]2O (some centres not stated) [CALENDULADIOL]
Acetylcholinesterase [2]
  IC50: > 200 µM
Cholinesterase
  IC50: > 200 µM

## C=C(C)[C@@H]1CC[C@@]2(C)[C@H]1[C@H]1CC[C@@H]3[C@@]4(C)CC[C@H](O)C(C)(C)[C@@H]4CC[C@@]3(C)[C@]1(C)C[C@@H]2OC(C)=O
[3]
  inhibition: 51.2%
Cholinesterase
  IC50: > 200 µM
[1]
  inhibition: 5.6%

## CC1(C)[C@@H](O)CC[C@]2(C)[C@H]3CC[C@@H]4[C@H]5[C@H]([C@@]6(C)CO6)CC[C@]5(C)[C@@H](O)C[C@@]4(C)[C@]3(C)CC[C@@H]12
Acetylcholinesterase [2]
  IC50: > 200 µM
[3]
  inhibition: 19.4%
[1]
  inhibition: 24.3%

## CC1(C)[C@@H](OS(=O)(=O)O)CC[C@]2(C)[C@H]3CC[C@@H]4[C@H]5[C@H]([C@@]6(C)CO6)CC[C@]5(C)[C@@H](OS(=O)(=O)O)C[C@@]4(C)[C@]3(C)CC[C@@H]12
Acetylcholinesterase [2]
  IC50: > 200 µM
[3]
  inhibition: 43.7%
Cholinesterase
  IC50: > 200 µM
[1]
  inhibition: 13.7%

## C=C(C)[C@@H]1CC[C@]2(C)C(=O)C[C@]3(C)[C@H](CC[C@@H]4[C@@]5(C)CCC(=O)C(C)(C)[C@@H]5CC[C@]43C)[C@@H]12
[3]
  inhibition: 33.4%
[1]
  inhibition: 6.4%

## C=C(CO)[C@@H]1CC[C@@]2(C)[C@H]1[C@H]1CC[C@@H]3[C@@]4(C)CC[C@H](OS(=O)(=O)O)C(C)(C)[C@@H]4CC[C@@]3(C)[C@]1(C)C[C@@H]2OS(=O)(=O)O
Acetylcholinesterase [2]
  IC50: > 200 µM
[4]
  Ratio IC50: > 1.7
[3]
  inhibition: 56.8%
Cholinesterase
  IC50: 188 µM
[1]
  inhibition: 10.8%

## C=C(C)[C@@H]1CC[C@@]2(C)[C@H]1[C@H]1CC[C@@H]3[C@@]4(C)CC[C@H](OS(=O)(=O)O)C(C)(C)[C@@H]4CC[C@@]3(C)[C@]1(C)C[C@@H]2OS(=O)(=O)O
Acetylcholinesterase [2]
  IC50: 190 µM
[4]
  Ratio IC50: 2.95
[3]
  inhibition: 78.5%
Cholinesterase
  IC50: 64.3 µM
[1]
  inhibition: 71%

## C=C(C)[C@@H]1CC[C@@]2(C)[C@H]1[C@H]1CC[C@H]3[C@@]4(C)CC[C@H](O)C(C)(C)[C@@H]4CC[C@@]3(C)[C@]1(C)C[C@@H]2O
[3]
  inhibition: 42%
[1]
  inhibition: 8.1%

## C=C(C=O)[C@@H]1CC[C@]2(C)C(=O)C[C@]3(C)[C@H](CC[C@@H]4[C@@]5(C)CCC(=O)C(C)(C)[C@@H]5CC[C@]43C)[C@@H]12
Acetylcholinesterase [2]
  IC50: > 200 µM
[4]
  Ratio IC50: > 9.3
[3]
  inhibition: 86.5%
Cholinesterase
  IC50: 21.5 µM
[1]
  inhibition: 21.7%
